Assay results taken from patent publication EP0454461A1, “Selective amplification system using Q beta replicase, a hybridization assay and a method of detecting and assessing concentration of target nucleic acid in liquid samples” (GENE-TRAK SYSTEMS CORPORATION, priority 1990, dated 1991).

How the values were obtained:
Qβ replicase [1] = assay: Inhibition by dyes of MDV-1 replication in linear-phase Qβ replicase reactions; format: biochemical, bacteriophage Qβ; details: about 3µg/ml dye; MDV-1 template
Description: A number of dyes, including ethidium bromide, ethidium bromide homodimer, propidium iodide, proflavine, quinacrine, Hoescht 33258 (bis-benzamidine), dimidium bromide and acridine orange, were tested for their ability to inhibit the replication of MDV-1 in linear-phase reactions, i.e., where the template RNA is present in excess over the enzyme and the amount of replicated RNA thus increases linearly with time. […] One of the strongest inhibitors, propidium iodide, was selected for further study. A concentration of dye producing a 70% inhibition of replication, about 3µg/ml, is sufficiently low to allow detection of the fluorescence increase produced when the dye binds to the RNA products of the reaction.

Qβ replicase [2] = assay: Effect of propidium iodide on replication of wild type MDV-1 RNA in a Qβ replicase preparation (32P-CTP incorporation, geometric phase); format: biochemical, bacteriophage Qβ; details: wild type MDV-1 template
Description: Propidium iodide was tested for its effect on the replication of wild type RNA in a preparation of Qβ replicase. Propidium iodide in an amount of either 0, 1, or 3µg/ml was added to a reaction buffer containing: 90mM Tris HC1 (pH7.5), 14mM MgC1₂, 0.4mM each ATP, GTP, UTP, and CTP, and 10µCi α-³²P-CTP. The Qβ replicase reaction was initiated in each sample by addition of 1.2µg of Qβ replicase prepared according to the method of Eoyang and August, (1972), ibid. Aliquots of the reaction mixture were withdrawn every 5 minutes and spotted on DE81 filters (Schleicher & Schuell Inc., Keene, NH). The spotted filters were washed repeatedly with 0.5M NaPO₄, (pH7.0) to remove unincorporated nucleotide. The filters were counted for Cerenkov radiation by standard procedures in a scintillation counter. Addition of propidium iodide delayed the point in time at which levels of incorporation resulting from the replication of wild type MDV-1 template became detectable. One microgram per milliter delayed the appearance of replicated product between about 2-5 minutes, which corresponds to about 20-50% inhibition of the rate of replication in the geometric phase, and 3µg/ml delayed the appearance of product for about 20 minutes, which corresponds to approximately a 3-fold reduction in the rate of replication.

CC[N+](C)(CC)CCC[n+]1c(-c2ccccc2)c2cc(N)ccc2c2ccc(N)cc21 [propidium iodide]
inhibition of replication (Qβ replicase [1]): 70%
delay of the appearance of replicated product (Qβ replicase [2]; 1 µg/ml propidium iodide): 2 to 5 min
inhibition of the rate of replication in the geometric phase (Qβ replicase [2]; 1 µg/ml propidium iodide): 20-50%
delay of the appearance of product (Qβ replicase [2]; 3µg/ml propidium iodide): about 20 minutes
reduction in the rate of replication (Qβ replicase [2]; 3µg/ml propidium iodide): ~3 fold
